Test results: patent publication US11066396B2 (priority 2016, dated 2021)

Experiments:
HDAC1 = HDAC1 (Homo sapiens (Human), UniProt Q13547); conditions: read-out: HDAC1 IC50
HDAC5 = HDAC5 (Homo sapiens (Human), UniProt Q9UQL6); conditions: read-out: HDAC5 IC50
Chain of HDAC5 (Q9UQL6 656-1122): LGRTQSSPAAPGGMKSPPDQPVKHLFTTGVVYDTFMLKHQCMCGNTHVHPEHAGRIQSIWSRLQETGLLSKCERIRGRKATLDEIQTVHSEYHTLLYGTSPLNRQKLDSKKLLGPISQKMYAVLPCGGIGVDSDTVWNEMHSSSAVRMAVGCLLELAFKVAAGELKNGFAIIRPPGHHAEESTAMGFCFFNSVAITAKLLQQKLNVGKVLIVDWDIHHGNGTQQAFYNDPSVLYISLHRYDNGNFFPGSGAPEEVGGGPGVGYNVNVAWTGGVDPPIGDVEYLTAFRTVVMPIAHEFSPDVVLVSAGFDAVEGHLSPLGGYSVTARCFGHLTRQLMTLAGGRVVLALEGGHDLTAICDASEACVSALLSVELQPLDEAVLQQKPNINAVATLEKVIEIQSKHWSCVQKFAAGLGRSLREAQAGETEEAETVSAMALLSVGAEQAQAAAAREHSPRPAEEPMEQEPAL

Chain of HDAC1 (Q13547 whole entry): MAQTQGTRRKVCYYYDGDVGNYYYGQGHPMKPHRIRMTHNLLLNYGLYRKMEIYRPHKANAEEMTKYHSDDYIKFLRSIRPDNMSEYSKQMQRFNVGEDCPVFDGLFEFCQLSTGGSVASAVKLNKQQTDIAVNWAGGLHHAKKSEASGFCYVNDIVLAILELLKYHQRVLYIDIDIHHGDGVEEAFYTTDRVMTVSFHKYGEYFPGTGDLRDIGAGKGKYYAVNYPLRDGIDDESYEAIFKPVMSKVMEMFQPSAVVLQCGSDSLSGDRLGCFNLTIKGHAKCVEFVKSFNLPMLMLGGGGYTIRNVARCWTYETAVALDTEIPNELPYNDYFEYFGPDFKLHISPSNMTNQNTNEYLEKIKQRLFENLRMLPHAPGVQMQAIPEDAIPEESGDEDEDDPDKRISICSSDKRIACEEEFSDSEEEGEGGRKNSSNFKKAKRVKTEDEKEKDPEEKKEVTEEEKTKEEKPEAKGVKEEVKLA

SMILES | IC50 (HDAC1) | IC50 (HDAC5)
Fc1cc(F)c(OCc2ccc(-c3noc(C(F)(F)F)n3)c(F)c2)cn1 [Example 283, 2,4-difluoro-5-({3-fluoro-4-[5-(trifluoromethyl)-1,2,4-oxadiazol-3-yl]phenyl}methoxy)pyridine] | 45000 nM | 75 nM
CNC(=O)c1ccccc1OCc1ccc(-c2noc(C(F)(F)F)n2)c(F)c1 [Example 284, 2-({3-fluoro-4-[5-(trifluoromethyl)-1,2,4-oxadiazol-3-yl]phenyl}methoxy)-N-methylbenzamide] | 2200 nM | 260 nM
Fc1cc(COc2ccc3cncnc3c2)ccc1-c1noc(C(F)(F)F)n1 [Example 285, 7-({3-fluoro-4-[5-(trifluoromethyl)-1,2,4-oxadiazol-3-yl]phenyl}methoxy)quinazoline] | 3400 nM | 280 nM
Fc1cc(COc2cccc(Cl)n2)ccc1-c1noc(C(F)(F)F)n1 [Example 286, 2-chloro-6-({3-fluoro-4-[5-(trifluoromethyl)-1,2,4-oxadiazol-3-yl]phenyl}methoxy)pyridine] | 2700 nM | 50 nM
Fc1cc(COc2cncc(Cl)c2)ccc1-c1noc(C(F)(F)F)n1 [Example 287, 3-chloro-5-({3-fluoro-4-[5-(trifluoromethyl)-1,2,4-oxadiazol-3-yl]phenyl}methoxy)pyridine] | 1800 nM | 150 nM
Fc1cc(COc2ccc(Cl)nc2)ccc1-c1noc(C(F)(F)F)n1 [Example 288, 2-chloro-5-({3-fluoro-4-[5-(trifluoromethyl)-1,2,4-oxadiazol-3-yl]phenyl}methoxy)pyridine] | 45000 nM | 280 nM
Cn1ccc(COc2nccc(-c3noc(C(F)(F)F)n3)c2Cl)n1 [Example 289, 3-chloro-2-[(1-methyl-1H-pyrazol-3-yl)methoxy]-4-[5-(trifluoromethyl)-1,2,4-oxadiazol-3-yl]pyridine] | 8400 nM | 680 nM
Cc1cnc(COc2nccc(-c3noc(C(F)(F)F)n3)c2Cl)cn1 [Example 290, 2-[({3-chloro-4-[5-(trifluoromethyl)-1,2,4-oxadiazol-3-yl]pyridin-2-yl}oxy)methyl]-5-methylpyrazine] | 8100 nM | 660 nM
Fc1cccnc1COc1nccc(-c2noc(C(F)(F)F)n2)c1Cl [Example 291, 3-chloro-2-[(3-fluoropyridin-2-yl)methoxy]-4-[5-(trifluoromethyl)-1,2,4-oxadiazol-3-yl]pyridine] | 9300 nM | 190 nM
Cc1ncc(COc2nccc(-c3noc(C(F)(F)F)n3)c2Cl)c(C)n1 [Example 292, 5-[({3-chloro-4-[5-(trifluoromethyl)-1,2,4-oxadiazol-3-yl]pyridin-2-yl}oxy)methyl]-2,4-dimethylpyrimidine] | 6500 nM | 540 nM
Cn1cc(COc2nccc(-c3noc(C(F)(F)F)n3)c2Cl)nn1 [Example 293, 3-chloro-2-[(1-methyl-1H-1,2,3-triazol-4-yl)methoxy]-4-[5-(trifluoromethyl)-1,2,4-oxadiazol-3-yl]pyridine] | 4500 nM | 510 nM
FC(F)(F)c1nc(-c2ccnc(OCc3nccnc3Cl)c2Cl)no1 [Example 294, 2-chloro-3-[({3-chloro-4-[5-(trifluoromethyl)-1,2,4-oxadiazol-3-yl]pyridin-2-yl}oxy)methyl]pyrazine] | 12000 nM | 410 nM
FC(F)(F)c1nc(-c2ccnc(OCc3ncccc3Cl)c2Cl)no1 [Example 295, 3-chloro-2-[(3-chloropyridin-2-yl)methoxy]-4-[5-(trifluoromethyl)-1,2,4-oxadiazol-3-yl]pyridine] | 17000 nM | 500 nM
FC(F)(F)c1nc(-c2ccc(COc3nc(C4CC4)no3)nc2)no1 [Example 296, 2-{[(3-cyclopropyl-1,2,4-oxadiazol-5-yl)oxy]methyl}-5-[5-(trifluoromethyl)-1,2,4-oxadiazol-3-yl]pyridine] | 3700 nM | 49 nM
FC(F)(F)c1nc(-c2ccc(COc3cccc4[nH]nnc34)nc2)no1 [Example 297, 4-({5-[5-(trifluoromethyl)-1,2,4-oxadiazol-3-yl]pyridin-2-yl}methoxy)-1H-benzotriazole] | 310 nM | 51 nM
FC(F)(F)c1nc(-c2ccc(COc3nncc4ccccc34)nc2)no1 [Example 298, 1-({5-[5-(trifluoromethyl)-1,2,4-oxadiazol-3-yl]pyridin-2-yl}methoxy)phthalazine] | 1000 nM | 290 nM
O=C1NCCc2c(OCc3ccc(-c4noc(C(F)(F)F)n4)cn3)cccc21 [Example 299, 5-({5-[5-(trifluoromethyl)-1,2,4-oxadiazol-3-yl]pyridin-2-yl}methoxy)-3,4-dihydroisoquinolin-1(2H)-one] | 1300 nM | 800 nM
O=c1ccc2cnccc2n1Cc1ccc(-c2noc(C(F)(F)F)n2)cn1 [Example 301, 1-({5-[5-(trifluoromethyl)-1,2,4-oxadiazol-3-yl]pyridin-2-yl}methyl)-1,6-naphthyridin-2(1H)-one] | 280 nM | 37 nM
FC(F)(F)c1nc(-c2ccc(COc3nccc4nccn34)nc2)no1 [Example 303, 5-({5-[5-(trifluoromethyl)-1,2,4-oxadiazol-3-yl]pyridin-2-yl}methoxy)imidazo[1,2-c]pyrimidine] | 990 nM | 170 nM
Cn1c(OCc2ccc(-c3noc(C(F)(F)F)n3)cn2)nc2cccnc21 [Example 304, 3-methyl-2-({5-[5-(trifluoromethyl)-1,2,4-oxadiazol-3-yl]pyridin-2-yl}methoxy)-3H-imidazo[4,5-b]pyridine] | 250 nM | 79 nM
FC(F)(F)c1nc(-c2ccc(COc3ccc4ncnn4c3)nc2)no1 [Example 305, 6-({5-[5-(trifluoromethyl)-1,2,4-oxadiazol-3-yl]pyridin-2-yl}methoxy)[1,2,4]triazolo[1,5-a]pyridine] | 2400 nM | 1700 nM
FC(F)c1cc(OCc2ccc(-c3noc(C(F)(F)F)n3)cn2)ncn1 [Example 306, 4-(difluoromethyl)-6-({5-[5-(trifluoromethyl)-1,2,4-oxadiazol-3-yl]pyridin-2-yl}methoxy)pyrimidine] | 1300 nM | 220 nM
Cc1cncnc1OCc1ccc(-c2noc(C(F)(F)F)n2)cn1 [Example 307, 5-methyl-4-({5-[5-(trifluoromethyl)-1,2,4-oxadiazol-3-yl]pyridin-2-yl}methoxy)pyrimidine] | 2200 nM | 620 nM
COc1ncccc1OCc1ccc(-c2noc(C(F)(F)F)n2)cn1 [Example 308, 2-methoxy-3-({5-[5-(trifluoromethyl)-1,2,4-oxadiazol-3-yl]pyridin-2-yl}methoxy)pyridine] | 740 nM | 310 nM
FC(F)(F)c1nc(-c2ccc(COc3cc(Cl)ncn3)nc2)no1 [Example 309, 4-chloro-6-({5-[5-(trifluoromethyl)-1,2,4-oxadiazol-3-yl]pyridin-2-yl}methoxy)pyrimidine] | 4200 nM | 450 nM
FC(F)(F)c1nc(-c2ccc(COc3ccc(Cl)nc3)nc2)no1 [Example 310, 2-chloro-5-({5-[5-(trifluoromethyl)-1,2,4-oxadiazol-3-yl]pyridin-2-yl}methoxy)pyridine] | 2400 nM | 770 nM
